Measured values taken from patent publication US8614237B2, “Benzofuran-4,5-diones as selective peptide deformylase inhibitors” (Sloan-Kettering Institute for Cancer Research, priority 2009, dated 2013).
In brackets after ≈: the same amount, converted by molar mass.

Assays:
[1] = target: T1, HsPDF (Homo sapiens, UniProt Q9HBH1); experiment: HsPDF IC50
T1 construct: A 63 amino acid N-terminally truncated human peptide deformylase (HsPDF); 6His (C); made in house; host or cells: E. coli BL21 (DE3), co-transformed with the GroES/EL chaperone plasmid
Excerpt: Table printed on a drawing sheet, Figure 7
Head of the field: HsPDF IC50
The patent's description of the figure: FIG. 7. Cytotoxicity profiling for the thirty-three (33) derivatives of benzofuran-4,5-diones toward […]. The IC50 in μM for each compound toward each cell line is summarized as a heat map.
Where the first naming reader finds the target: head: HsPDF IC50

[2] = test system: EcPDF
Procedure: Head of the field: EcPDF %I 10uM
(§2) Specificity profiling of the derivatives of benzofuran-4,5-diones.
Where the first naming reader finds the target: head: EcPDF %I 10uM

[3] = test system: panel of eight cancer cell lines; experiment: Cytotoxicity profiling of 26 second generation derivatives (Alamar Blue viability assay, nuclei count); type: cell-based, human
Procedure: Cytotoxicity profiling for the 26 newly synthesized benzofuran-4,5-diones derivatives was performed on a panel of eight cancer cell lines.
The cell lines HL-60 (human acute promyelocytic leukemia), Jurkat (human acute T cell leukemia), Molt3 (acute lymphoblastic leukemia), CWR22 (prostate carcinoma), K562 (human chronic myeloid leukemia lymphoblasts), and Y79 (human retinoblastoma) were obtained from the ATCC, and cultured following ATCC recommendations. The cell line HL-60/RV+ (a P-glycoprotein-overexpressing multi-drug resistant HL-60 variant selected by continuous exposure to vincristine) was described elsewhere (Weisburg J H, Roepe P D, Dzekunov S, Scheinberg D A: Intracellular pH and multidrug resistance regulate complement-mediated cytotoxicity of nucleated human cells. J Biol Chem 1999; 274:10877-10888). The cell line ALL-3 (acute lymphoblastic leukemia isolated from a patient treated at MSKCC and characterized as Philadelphia chromosome positive) was obtained from Dr. Mark Frattini (MSKCC). The viability assay we used in this study is based on the dye resazurin and commercially sold as Alamar Blue (O'Brien J, Wilson I, Orton T, Pognan F: Investigation of the Alamar Blue (resazurin) fluorescent dye for the assessment of mammalian cell cytotoxicity. Eur J Biochem 2000; 267:5421-5426). Cells were added in 45 μL medium to the pre-plated compounds in 5 μL of 1% DMSO (v/v). After 72 h incubation was added 5 μL Alamar Blue. […] Plates were then fixed and nuclei were stained using Hoechst for the nuclear count proliferation assay. Imaging for Hoechst staining of nuclei count were acquired with an IN Cell Analyzer 2000 epifluorescence automated microscope ([…]) (GE Healthcare, Piscataway, N.J.) equipped with a 4× objective, using D360/40 excitation filter (360 nm excitation peak; +/−40 nm bandpass), HQ535/50 emission filter (535 nm emission peak; +/−50 nm bandpass) and Q505LP dichroic, and exposing fields for 200 milliseconds in the blue channel. Image analysis was conducted with the IN Cell Developer 1.7 software (GE Healthcare) using custom-developed analysis modules. The analysis module used for nuclei count performs object segmentation in the blue channel to automatically define and count the number of nuclei. Data is reported as the sum of imaged nuclei.
In addition of the Alamar Blue viability assay readout, for the adherent cell lines of this panel (CWR22 and Meso47) we performed a direct nuclei count to assess the effect of the novel derivatives on cell proliferation.

[4] = Aqueous solubility limit by laser nephelometry; type: physicochemical; settings: aqueous solution (composition not stated), kinetic from dmso stock, upper limit 10 μM
Excerpt: We assessed the aqueous solubility limit for the 26 novel benzofuran-4,5-diones using laser nephelometry. […] Data were compared to standards of known turbidity to assess the solubility limit for each compound.

[5] = test system: ALL3 cells; experiment: Cytotoxicity in vitro toward ALL3 cells; type: cell-based; settings: Homo sapiens
Excerpt: (§1) The cell lines HL-60 (human acute promyelocytic leukemia), Jurkat (human acute T cell leukemia), Molt3 (acute lymphoblastic leukemia), CWR22 (prostate carcinoma), HEK293 (human embryonic kidney), K562 (human chronic myeloid leukemia lymphoblasts), Y79 (human retinoblastoma) were obtained from the ATCC, and cultured following ATCC recommendations. The cell line NCEB-1 (human non-hodgkin lymphoma) was obtained from Dr. O'Connor (Sloan-Kettering Institute). The cell line HL-60/RV+ (a P-glycoprotein-overexpressing multi-drug resistant HL-60 variant selected by continuous exposure to vincristine) was described elsewhere (Weisburg et al., J. Biol. Chem. 1999, 274, 10877-10888). The cell line ALL-3 (acute lymphoblastic leukemia isolated from a patient treated at MSKCC and characterized as Philadelphia chromosome positive) was obtained from Dr. Mark Frattini (MSKCC). The assay used for the cytotoxicity studies is based on the dye resazurin and commercially sold as Alamar Blue (O'Brien et al., Eur. J. Biochem. 2000, 267, 5421-5426). Cells were added in 45 μL medium to the pre-plated compounds in 5 μL of 1% DMSO (v/v). After incubation for 72 hours, 5 μL of Alamar Blue was added.

[6] = In vivo toxicity of benzofuran-4,5-diones; settings: i.p. twice a day for four days, 1 to 10 mg/kg, monitored 14 days
Procedure: Lead compound SKC-BF-13 and another newly synthesized derivative SKC-BF-02 were selected in order to assess the in vivo toxicity of benzofuran-4,5-diones. Three mice per group were treated with BF-13 at three doses (i.e., 1, 5 and 10 mg/kg) or with SKC-BF-02 at two doses (i.e., 1 and 10 mg/kg). A control group of two mice were treated with the vehicle (i.e., 20% DMSO v/v). Mice were treated twice a day for four days via intraperitoneal administration. Their weight was monitored along with any other signs of toxicity for fourteen days.
ICR/SCID male mice about three weeks old were used in this study. Three mice per group were treated with BF-13 at three doses (i.e., 1, 5 and 10 mg/kg) or with SKC-BF-02 at two doses (i.e., 1 and 10 mg/kg). A control group of two mice were treated with the vehicle (20% DMSO v/v). Mice were treated twice a day for four days via intraperitoneal administration. Their weight was monitored as well as any other sign of toxicity for 14 days.
SKI 396848 (SKC-BF-12) and SKI 396840 (SKC-BF-02) were synthesized during the first round of exploratory chemistry to assess the in vivo toxicity of benzofuran-4,5-diones (as shown in FIG. 8). Three ICR/SCID male mice per group were treated with SKI 396848 at three doses: 1, 5 and 10 mg/kg or with SKI 396840 at two doses: 1 and 10 mg/kg. A control group of two mice was treated with the vehicle (20% DMSO v/v). Mice were treated twice a day for four days i.p. Their weight was monitored as well as any other sign of toxicity for 14 days. One treated mouse per group was evaluated by a pathologist.

[7] = test system: ALL-3 cells; experiment: In vivo efficacy, mouse xenograft model using ALL-3 cells; settings: 1 and 3 mg/kg i.p. twice a week for two weeks
Procedure: The in vivo efficacy of SKI 396848 (SKC-BF-12) was assessed in a mouse xenograft model using ALL-3 cells isolated from a patient with acute lymphoblastic leukemia refractory to imatinib. Three mice per group were treated at two doses: 1 and 3 mg/kg. A control group of three mice was treated with the vehicle (20% DMSO v/v). Mice were treated twice a week for two weeks i.p. Their weight was monitored as well as any other sign of toxicity for 14 days. […] Nonetheless, the observed difference between the treated groups and the control group was significant, and our study provides a solid proof of concept for the use of benzofuran-4,5-dione based HsPDF inhibitors as novel antitumor agents in vivo.

[8] = test system: MMP-1; experiment: MMP-1 %I 100uM
Procedure: Table printed on a drawing sheet, Figure 5
Head of the field: MMP-1 %I 100uM
Footnotes: -26 124 % inhibition
The patent's description of the figure: FIG. 5.
Where the first naming reader finds the target: head: MMP-1 %I 100uM

[9] = target: T2, HsPDF (Homo sapiens, UniProt Q9HBH1); experiment: FP binding assay (fluorescence polarization, probe SKI 267088), specificity profiling and dose response; settings: dose response, 12 point doubling dilutions, upper limit 100 μM
T2 construct: A 63 amino acid N-terminally truncated human peptide deformylase (HsPDF); 6His (C); made in house; host or cells: E. coli BL21 (DE3), co-transformed with the GroES/EL chaperone plasmid
T2 sequence (Q9HBH1 64-243 limits assumed): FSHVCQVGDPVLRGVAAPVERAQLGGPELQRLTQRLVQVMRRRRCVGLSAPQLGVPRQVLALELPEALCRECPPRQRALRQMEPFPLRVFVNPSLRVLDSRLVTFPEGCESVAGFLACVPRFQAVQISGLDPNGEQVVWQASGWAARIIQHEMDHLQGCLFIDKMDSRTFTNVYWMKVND
Procedure: Specificity profiling was performed on the newly synthesized benzofuran-4,5-diones using the aforementioned FP profiling method (Antczak et al., J. Biomol. Screen 2008, 13, 285-294).
Compounds or high/low controls were added to the wells at a volume of 2 μL. […] High controls consisted of 1% DMSO (v/v). MBP-HsPDF or the metalloprotease to be tested was diluted in the assay buffer (25 mM Hepes, 50 mM NaCl, 0.005% Tween 20, pH 7.5), and 10 μL where added to the 384-well microplates (Low Volume Round Bottom NBS Treated, Corning) to achieve a final concentration of 1 μM. After addition of MBP-HsPDF to the tested compounds, the 384-well microplates were preincubated for one hour at room temperature. Then 8 μL of the probe SKI 267088 in solution in assay buffer was added to the wells at a final concentration of 5 nM. After one hour incubation at room temperature, the fluorescence polarization was read using the Amersham LEADseeker™ Multimodality Imaging System equipped with Cy3 excitation/emission filters and Cy3 FP epi-mirror. Quench tests were performed in duplicate by measuring the fluorescence polarization of wells containing the probe, pre- and post-addition of the compounds at 100 μM.
In each assay, the signal inhibition induced by the compounds was expressed as a percentage compared to high and low controls located on the same plate, as defined as % Inhibition=(high control average−read value)/(high control average−low control average)×100. The dose response was assessed in duplicate and using 12 point doubling dilutions with 100 μM compound concentration as the upper limit. The dose response curve for each set of data was fitted separately, and the two IC50 values obtained were averaged.

[10] = test system: panel of cancer cell lines; experiment: Cytotoxicity assay (Alamar Blue), primary hits and first generation derivatives; type: cell-based, human; settings: Homo sapiens; first generation, panel of nine cancer cell lines; SKC-BF-13: on four cell lines; read-out: cytotoxicity IC50, Alamar Blue viability assay
Procedure: Cytotoxicity assays were performed in order to profile the thirty-three newly synthesized benzofuran-4,5-dione derivatives on a panel of nine cancer cell lines. A heat map summarizes the calculated IC50s ([…]). Twelve out of thirteen derivatives potent toward HsPDF were also cytotoxic toward several cancer cell lines (FIG. 7).
as §1, with “Cells were added in 45 μL medium to the pre-plated compounds in 5 μL of 1% DMSO (v/v). After incubation for 72 hours, 5 μL of Alamar Blue was added.” left out

[11] = test system: Jurkat cell line; experiment: Cytotoxicity in vitro toward Jurkat cell line; type: cell-based; settings: Homo sapiens, acute T-cell leukemia
Excerpt: as §1

[12] = test system: Jurkat tumors; experiment: In vivo study, mouse xenograft with Jurkat tumors; settings: 5, 15 and 30 mg/kg i.p. twice a week for three weeks
Procedure: In this study, higher doses could be achieved by injecting the drug in a small volume (100 μL) of 100% DMSO (v/v). Three mice per group were treated at three doses: 5, 15 and 30 mg/kg. A control group of three mice was treated with the vehicle (100% DMSO v/v). Mice were treated i.p. twice a week for three weeks. Unfortunately, a large variability in the growth of the Jurkat tumors caused data interpretation to be difficult.

[13] = test system: EcPDF; remark: listed apart in the source
Procedure: Head of the field: EcPDF %I 100uM
as §2
Where the first naming reader finds the target: head: EcPDF %I 100uM

With O=C1C(=O)c2c(C(=O)c3ccccc3)coc2C(Cl)=C1Cl [SKC-BF-09, 3-Benzoyl-6,7-dichloro-benzofuran-4,5-dione] the IC50 [1] was 45 µM and the “EcPDF %I 10uM” value [2] was 43 %I.
In the case of COc1ccc(C(=O)c2coc3c2C(=O)C(=O)C(Cl)=C3)cc1 [SKC-BF-04, 6-Chloro-3-(4-methoxybenzoyl)-benzofuran-4,5-dione], the IC50 [1] is reported as 40 µM and the “EcPDF %I 10uM” value [2] is reported as -6 %I.
For O=C1C(=O)c2c(C(=O)c3ccc(Cl)c(Cl)c3)coc2C(Cl)=C1Cl [SKI 417516, 6,7-dichloro-3-(3,4-dichlorobenzoyl)benzofuran-4,5-dione], the “activity against the cell lines of the panel, second generation” value [3] was “active against all cell lines of our panel except Meso47” and the solubility [4] was 5 µM (≈ 1.95 µg/mL).
In the case of COc1ccc(C(=O)c2coc3c2C(=O)C(=O)C(Br)=C3Br)cc1OC [SKC-BF-12, 6,7-Dibromo-3-(3,4-dimethoxy-benzoyl)-benzofuran-4,5-dione], the IC50 [5] is reported as 36 µM, the “signs of toxicity in vivo (weight and other signs)” value [6] is reported as “None of the treatments were found to induce any signs of toxicity” and the “tumor progression in ALL-3 xenograft” value [7] is reported as “only a slight delay in tumor progression”. For the same molecule, the “MMP-1 %I 100uM” value [8] was 46 %I and the “EcPDF %I 10uM” value [2] was 35 %I.
COc1cc(C(=O)c2coc3c2C(=O)C(=O)C(Br)=C3Br)cc(OC)c1OC [SKC-BF-13, 6,7-Dibromo-3-(3,4,5-trimethoxy-benzoyl)-benzofuran-4,5-dione] gave an IC50 [9] of 5.2 µM, an IC50 [10] of under 10 µM and an IC50 [11] of 3000 nM. For the same molecule, the “signs of toxicity in vivo (weight and other signs)” value [6] was “none of the treatments induced any sign of toxicity”, the “body weight of treated groups” value [12] was “no loss of weight” and the “MMP-1 %I 100uM” value [8] was 38 %I. For the same molecule, the “EcPDF %I 100uM” value [13] was 32 %I and the “EcPDF %I 10uM” value [2] was 32 %I.
